Data reported in the NIST ThermoML archive (doi:10.1016/j.jct.2019.03.035).

Experiment: refractive index (other wavelength) (dimensionless); xn = mol fraction of the nth substance listed
Settings: 288.62 K, 100 kPa, Liquid, Wavelength=632.8 nm, minimum deviation angle technique

N#Cc1ccccc1 [benzonitrile] + CCCCCCCCCC
Settings | refractive index
x1 = 0.112 | 1.4196
x1 = 0.188 | 1.4249
x1 = 0.34 | 1.4371
x1 = 0.396 | 1.4422
x1 = 0.49 | 1.4514
x1 = 0.608 | 1.4647
x1 = 0.702 | 1.4771
x1 = 0.821 | 1.4952
x1 = 0.912 | 1.5105
x1 = 1 | 1.5277
